In series [1] the test system is Pseudomonas aeruginosa. The series can be described thus: Antibacterial activity against Pseudomonas aeruginosa ATCC 27853 after 24 hrs by broth microdilution method. Format: functional. (Dilution methods test growth across graded concentrations, often in twofold steps.)
Series [2] is described as follows: Inhibition of Trypanosoma brucei recombinant farnesyltransferase using dansyl peptide containing GCAIM as substrate in presence of farnesyl pyrophosphate after 15 mins by fluorescence assay.
Series [3] deals with Staphylococcus intermedius. Nature of the series: Antibacterial activity against Staphylococcus intermedius isolate 1051997 after 24 hrs by broth microdilution method. It is filed as functional. The following applies: isolate 1051997, 24 h.
Series [4] has as its system Escherichia coli. Nature of the series: Antibacterial activity against Escherichia coli ATCC 25922 after 24 hrs by broth microdilution method. Format: functional.
The test system of series [5] is Plasmodium falciparum. Nature of the series: Antiplasmodial activity against chloroquine-resistant erythrocyte stage of Plasmodium falciparum FcM29-Cameroon infected in human RBC assessed as reduction in [3H]hypoxanthine incorporation preincubated for 48 hrs followed by [3H]hypoxanthine addition measured after 24 hrs by liquid scintillation counting method. Format: functional.

Series [6] in a line: Inhibition of recombinant human farnesyltransferase using dansyl-GCVLS as substrate in presence of farnesyl pyrophosphate after 15 mins by fluorescence assay.
For series [7], the system named is Staphylococcus aureus. The series can be described thus: Antibacterial activity against Staphylococcus aureus ATCC 25923 after 24 hrs by broth microdilution method. It is filed as functional. As to conditions: ATCC 25923, 24 h.
The test system of series [8] is L6. The series can be described thus: Cytotoxicity against rat L6 cells after 72 hrs by Alamar blue assay. As to conditions: L6, 72 h. Format: cell-based. (The colour change of resazurin is a common sign of viable cells or microbes.)
Series [9] deals with Plasmodium falciparum. Nature of the series: Antiplasmodial activity against chloroquine-sensitive IEF stage of Plasmodium falciparum NF54 infected in human RBC assessed as reduction in [3H]hypoxanthine incorporation preincubated for 48 hrs followed by [3H]hypoxanthine addition measured after 24 hrs by liquid scintillation counting method. It is filed as functional.
Series [10] can be described thus: Selectivity index, ratio of IC50 for rat L6 cells to IC50 for chloroquine-sensitive IEF stage of Plasmodium falciparum NF54 infected in human RBC. As to conditions: read-out: Ratio IC50. Format: toxicity.

≈ marks a conversion by molar mass, not a printed value. Calls of active or inactive are those of the source. The rule behind the calls is not given here. Some results are limits rather than exact numbers.

For `CC(C)=CCC/C(C)=C/Cc1cc(O)cc2c1OC(/C=C(\C)CCC=C(C)C)C1=C2C(=O)C2=C(C1=O)S(=O)(=O)CCN2` (stereo not drawn), the result in [1] and in series [4] was inactive. Besides, the IC50 was 0.74 µM in series [2], above 17 µM in series [5] and 0.78 µM in series [6]. Also, the minimal inhibitory concentration (MIC) in [3] and in series [7] was above 200 µM in each case.
On to `CC(C)=CCC/C(C)=C/CC/C(C)=C/C1Oc2ccc(O)cc2C2=C1C(=O)C=CC2=O` (stereo not drawn), for which the half-maximal inhibitory concentration (IC50) in series [8] (read-out: IC50) is 23.5 µM; in [2], 3.3 µM; in [9], 7.2 µM; in series [6] it was 1.7 µM. Besides, the result in series [1] and in series [4] was inactive. The values for the MIC in series [3] and in series [7] were 3.12 µM (≈ 1.31 µg/mL) and 6.25 µM (≈ 2.62 µg/mL), respectively.
Take `CC(C)=CCC/C(C)=C/CC/C(C)=C/Cc1cc(O)cc2c1OC(/C=C(\C)CC/C=C(\C)CCC=C(C)C)C1=C2C(=O)C2=C(NCCS2(=O)=O)C1=O` (stereo not drawn): the IC50 came to 16.7 µM in series [8] (read-out: IC50), 2.9 µM in series [2], 2.9 µM in series [9] and 1.5 µM in series [6]. Besides, the outcome in series [1] and in series [4] was inactive. Further, the MIC in series [3] and in series [7] was above 200 µM throughout.
Regarding `CC(C)=CCc1cc2c(cc1O)C1=C(C(=O)C3=C(NCCS3(=O)=O)C1=O)C(C=C(C)C)O2` (stereo not drawn), the IC50 in series [8] (read-out: IC50) was 5.2 µM; in series [2], above 22 µM; in [9], 4.8 µM; in series [6] it was above 22 µM. In addition, the result in [1] and in [4] was inactive. For the same compound, the MIC in [3] and in series [7] was above 200 µM in each case.
Turning to `CC(C)=CCC/C(C)=C/CC/C(C)=C/Cc1cc(O)cc2c1OC(/C=C(\C)CC/C=C(\C)CCC=C(C)C)C1=C2C(=O)C2=C(C1=O)S(=O)(=O)CCN2` (stereo not drawn), the IC50 stood at 30.6 µM in series [8] (read-out: IC50), 0.35 µM in [2], 4 µM in [9] and 0.17 µM in series [6]. In addition, the result in series [1] and in series [4] was inactive. The MIC in series [3] and in series [7] was above 200 µM each time.
Turning to `COC1=CC(=O)C2=C(C1=O)c1cc(O)ccc1OC2/C=C(\C)CC/C=C(\C)CCC=C(C)C` (stereo not drawn), the IC50 in series [8] (read-out: IC50) is 34.3 µM; in [2], above 22.3 µM; in series [9], 20.4 µM; in series [6], above 22.3 µM. Also, the outcome in series [1] and in [4] was inactive. Further, the MIC in [3] was found to be 50 µM (≈ 22.4 µg/mL); in series [7] it was 25 µM (≈ 11.2 µg/mL).
`CC(C)=CCC/C(C)=C/Cc1cc2c(cc1O)C1=C(C(=O)C3=C(NCCS3(=O)=O)C1=O)C(/C=C(\C)CCC=C(C)C)O2` (stereo not drawn): the outcome in [1] and in series [4] was inactive. Moreover, the IC50 in series [2] is 3.04 µM; in [5], above 17 µM; in [6], 1.22 µM. The MIC in series [3] and in series [7] was above 200 µM throughout.
Take `COc1cc([C@@H]2c3cc4c(cc3[C@H](O)[C@H]3COC(=O)[C@H]23)OCO4)cc(OC)c1OC` [PODOFILOX]: the IC50 in [8] is 0.012 µM.
For `CSCC[C@H](NC(=O)c1ccc(NC[C@@H](N)CS)cc1-c1ccccc1)C(=O)O`, the half-maximal inhibitory concentration (IC50) in [2] was 0.01 µM.
`CC(C)=CCC/C(C)=C/Cc1cc2c(cc1O)C1=C(C(=O)C3=C(C1=O)S(=O)(=O)CCN3)C(/C=C(\C)CCC=C(C)C)O2` (stereo not drawn): the outcome in [1] and in [4] was inactive. The values for the IC50 in series [2], in series [5] and in series [6] were 0.098 µM, 4.39 µM and 0.054 µM, respectively. Moreover, the MIC in series [3] and in series [7] was above 200 µM in each case.
With `CC(C)=CCC/C(C)=C/CC/C(C)=C/Cc1cc2c(cc1O)C1=C(C(=O)C3=C(NCCS3(=O)=O)C1=O)C(/C=C(\C)CC/C=C(\C)CCC=C(C)C)O2` (stereo not drawn), the IC50 was 25.8 µM in series [8] (read-out: IC50), 1 µM in [2], 3.4 µM in series [9] and 0.45 µM in [6]. Moreover, the outcome in series [1] and in series [4] was inactive. The MIC in series [3] and in series [7] was above 200 µM in each case.
In the case of `CC(C)=CCC/C(C)=C/Cc1cc(O)cc2c1OC(/C=C(\C)CCC=C(C)C)C1=C2C(=O)C2=C(NCCS2(=O)=O)C1=O` (stereo not drawn), the outcome in [1] and in [4] was inactive. For the same compound, the IC50 in [2] turned out to be 0.22 µM; in series [5] it was 4.56 µM; in series [6], 0.14 µM. Further, the minimum inhibitory concentration (MIC) in [3] and in series [7] was above 200 µM in each case.
Take `CC(C)=CCC/C(C)=C/CC/C(C)=C/C1Oc2c(cc(O)c3c2-c2cc(O)ccc2OC3/C=C(\C)CC/C=C(\C)CCC=C(C)C)C2=C1C(=O)C=CC2=O` (stereo not drawn): the IC50 was found to be 53.2 µM in series [8] (read-out: IC50), 1.6 µM in series [2], 33.9 µM in series [9] and 1 µM in series [6]. Also, the result in series [1] and in series [4] was inactive. For the same compound, the MIC in [3] and in [7] was above 200 µM each time.
Turning to `CN[C@@H]1[C@H](O[C@H]2[C@H](O[C@H]3[C@H](O)[C@@H](O)[C@H](N=C(N)N)[C@@H](O)[C@@H]3N=C(N)N)O[C@@H](C)[C@]2(O)C=O)O[C@@H](CO)[C@H](O)[C@H]1O` [STREPTOMYCIN], the MIC is 10.7 µM (≈ 6.22 µg/mL) in series [3] and 21.5 µM (≈ 12.5 µg/mL) in [7].
In the case of `CC(C)=CCc1cc(O)cc2c1OC(C=C(C)C)C1=C2C(=O)C2=C(C1=O)S(=O)(=O)CCN2` (stereo not drawn), the half-inhibitory concentration (IC50) was 12.8 µM in series [8] (read-out: IC50), above 22 µM in [2], 8 µM in [9] and 17.3 µM in series [6]. Besides, the outcome in [1] and in series [4] was inactive. Also, the minimal inhibitory concentration (MIC) in [3] and in [7] was above 200 µM each time.
`CC(C)=CCc1cc(O)cc2c1OC(C=C(C)C)C1=C2C(=O)C2=C(NCCS2(=O)=O)C1=O` (stereo not drawn): the concentration for half-maximal inhibition (IC50) in [8] (read-out: IC50) is 4.2 µM; in [2] it was 19.6 µM; in series [9], 2 µM; in series [6], 14.7 µM. In addition, the result in [1] and in [4] was inactive. Also, the minimum inhibitory concentration (MIC) in series [3] and in series [7] was above 200 µM each time.
With `O=C(N[C@H](CO)[C@H](O)c1ccc([N+](=O)[O-])cc1)C(Cl)Cl` [CHLORAMPHENICOL], the minimal inhibitory concentration (MIC) in series [3] was 3 to 6 µM (≈ 0.969 to 1.94 µg/mL); in [7], 1.5 to 3 µM (≈ 0.485 to 0.969 µg/mL).
For the compound `CC(C)=CCc1cc2c(cc1O)C1=C(C(=O)C3=C(C1=O)S(=O)(=O)CCN3)C(C=C(C)C)O2` (stereo not drawn), the 50% inhibitory concentration (IC50) amounted to 0.4 µM in [8] (read-out: IC50), 2.3 µM in series [2], 0.29 µM in series [9] and 3.1 µM in series [6]. Further, the outcome in [1] and in [4] was inactive. The MIC in [3] and in series [7] was above 200 µM in each case.
Take `CC(C)=CCC/C(C)=C/CC/C(C)=C/Cc1cc2c(cc1O)C1=C(C(=O)C3=C(C1=O)S(=O)(=O)CCN3)C(/C=C(\C)CC/C=C(\C)CCC=C(C)C)O2` (stereo not drawn): the concentration for half-maximal inhibition (IC50) came to 126 µM in [8] (read-out: IC50), 5.2 µM in [2], 7.4 µM in series [9] and 4.7 µM in series [6]. Besides, the result in series [1] and in [4] was inactive. The minimal inhibitory concentration (MIC) in series [3] and in series [7] was above 200 µM throughout. Also, the selectivity ratio in [10] stood at 17.

Usually IC50 stands for the concentration that inhibits the measured activity by half. For orientation: MIC means the least concentration at which growth counts as inhibited. Higher therefore signals a need for much substance.

For the origin of these results see ChEMBL document CHEMBL4052727, “Structure-activity relationship studies on thiaplidiaquinones A and B as novel inhibitors of Plasmodium falciparum and farnesyltransferase” (Bioorg Med Chem, 2017).
